#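 GI50: concentration for 50% inhibition of growth. TGI marks complete inhibition of growth.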
# Experiments:
# Experiment in all cases: NCI tumour cell line growth inhibition, 384-well format
# SF-539 CNS = tested on: SF-539 CNS
# OVCAR-3 ovarian = tested on: OVCAR-3 ovarian
# HCT-15 colon = tested on: HCT-15 colon
# UACC-257 melanoma = tested on: UACC-257 melanoma
# SNB-19 CNS = tested on: SNB-19 CNS
# SNB-75 CNS = tested on: SNB-75 CNS
# IGROV1 ovarian = tested on: IGROV1 ovarian
# SK-MEL-2 melanoma = tested on: SK-MEL-2 melanoma
# HOP-92 NSCLC = tested on: HOP-92 NSCLC
# MALME-3M melanoma = tested on: MALME-3M melanoma
# NCI-H522 lung = tested on: NCI-H522 lung
# HCT-116 colon = tested on: HCT-116 colon
# U251 glioblastoma = tested on: U251 glioblastoma
# SK-OV-3 ovarian = tested on: SK-OV-3 ovarian
# MDA-MB-468 breast = tested on: MDA-MB-468 breast
# SF-295 CNS = tested on: SF-295 CNS
# NCI-H23 lung = tested on: NCI-H23 lung
# ACHN renal = tested on: ACHN renal
# CAKI-1 renal = tested on: CAKI-1 renal
# 786-0 renal = tested on: 786-0 renal
# TK-10 renal = tested on: TK-10 renal
# HT29 colon = tested on: HT29 colon
# SK-MEL-28 melanoma = tested on: SK-MEL-28 melanoma
# COLO 205 colon = tested on: COLO 205 colon
# HCC-2998 colon = tested on: HCC-2998 colon
# OVCAR-5 ovarian = tested on: OVCAR-5 ovarian
# NCI-H322M lung = tested on: NCI-H322M lung
# PC-3 prostate = tested on: PC-3 prostate
# MCF7 breast = tested on: MCF7 breast
# KM12 colon = tested on: KM12 colon
# UACC-62 melanoma = tested on: UACC-62 melanoma
# SF-268 CNS = tested on: SF-268 CNS
# EKVX NSCLC = tested on: EKVX NSCLC
# MOLT-4 leukemia = tested on: MOLT-4 leukemia
# OVCAR-8 ovarian = tested on: OVCAR-8 ovarian
# HL-60(TB) leukemia = tested on: HL-60(TB) leukemia
# DU-145 prostate = tested on: DU-145 prostate
# NCI-H226 lung = tested on: NCI-H226 lung
# OVCAR-4 ovarian = tested on: OVCAR-4 ovarian
# SK-MEL-5 melanoma = tested on: SK-MEL-5 melanoma
# RXF 393 renal = tested on: RXF 393 renal
# RPMI-8226 leukemia = tested on: RPMI-8226 leukemia
# SN12C renal = tested on: SN12C renal
# NCI/ADR-RES ovarian = tested on: NCI/ADR-RES ovarian
# T-47D breast = tested on: T-47D breast
# HS 578T breast = tested on: HS 578T breast
# SW-620 colon = tested on: SW-620 colon
# MDA-MB-231 breast = tested on: MDA-MB-231 breast
# LOX IMVI melanoma = tested on: LOX IMVI melanoma
# M14 melanoma = tested on: M14 melanoma
# NCI-H460 NSCLC = tested on: NCI-H460 NSCLC
# UO-31 renal = tested on: UO-31 renal
# K-562 leukemia = tested on: K-562 leukemia
# CCRF-CEM leukemia = tested on: CCRF-CEM leukemia
# HOP-62 NSCLC = tested on: HOP-62 NSCLC
# SR leukemia = tested on: SR leukemia
# A498 renal = tested on: A498 renal
# A549 NSCLC = tested on: A549 NSCLC
smiles,measurement,setting,value
COc1cc2ncnc3c2cc1OCCCCCN(C)Cc1ccc(Br)cc1N3,GI50,SF-539 CNS,> 100 µM
same,TGI,SF-539 CNS,> 100 µM
same,GI50,OVCAR-3 ovarian,1.07 µM
same,TGI,OVCAR-3 ovarian,> 100 µM
same,GI50,HCT-15 colon,2.86 µM
same,TGI,HCT-15 colon,> 100 µM
same,GI50,UACC-257 melanoma,> 100 µM
same,TGI,UACC-257 melanoma,> 100 µM
same,GI50,SNB-19 CNS,> 100 µM
same,TGI,SNB-19 CNS,> 100 µM
same,GI50,SNB-75 CNS,4.58 µM
same,TGI,SNB-75 CNS,> 100 µM
same,GI50,IGROV1 ovarian,0.419 µM
same,TGI,IGROV1 ovarian,2.85 µM
same,GI50,SK-MEL-2 melanoma,2.22 µM
same,TGI,SK-MEL-2 melanoma,> 22 µM
same,GI50,HOP-92 NSCLC,3.32 µM
same,TGI,HOP-92 NSCLC,> 100 µM
same,GI50,MALME-3M melanoma,3.33 µM
same,TGI,MALME-3M melanoma,> 100 µM
same,GI50,NCI-H522 lung,0.287 µM
same,TGI,NCI-H522 lung,2.97 µM
same,GI50,HCT-116 colon,3.8 µM
same,TGI,HCT-116 colon,> 100 µM
same,GI50,U251 glioblastoma,5.7 µM
same,TGI,U251 glioblastoma,> 100 µM
same,GI50,SK-OV-3 ovarian,0.643 µM
same,TGI,SK-OV-3 ovarian,5.34 µM
same,GI50,MDA-MB-468 breast,0.0909 µM
same,TGI,MDA-MB-468 breast,0.356 µM
same,GI50,SF-295 CNS,7.08 µM
same,TGI,SF-295 CNS,> 100 µM
same,GI50,NCI-H23 lung,4.73 µM
same,TGI,NCI-H23 lung,> 100 µM
same,GI50,ACHN renal,0.263 µM
same,TGI,ACHN renal,> 19.9 µM
same,GI50,CAKI-1 renal,1.36 µM
same,TGI,CAKI-1 renal,> 100 µM
same,GI50,786-0 renal,3.92 µM
same,TGI,786-0 renal,> 100 µM
same,GI50,TK-10 renal,0.352 µM
same,TGI,TK-10 renal,> 100 µM
same,GI50,HT29 colon,> 20.9 µM
same,TGI,HT29 colon,> 100 µM
same,GI50,SK-MEL-28 melanoma,> 27.3 µM
same,TGI,SK-MEL-28 melanoma,> 100 µM
same,GI50,COLO 205 colon,> 21.1 µM
same,TGI,COLO 205 colon,> 100 µM
same,GI50,HCC-2998 colon,5.37 µM
same,TGI,HCC-2998 colon,> 100 µM
same,GI50,OVCAR-5 ovarian,3.95 µM
same,TGI,OVCAR-5 ovarian,> 100 µM
same,GI50,NCI-H322M lung,0.191 µM
same,TGI,NCI-H322M lung,1.46 µM
same,GI50,PC-3 prostate,4.02 µM
same,TGI,PC-3 prostate,> 100 µM
same,GI50,MCF7 breast,8.25 µM
same,TGI,MCF7 breast,> 100 µM
same,GI50,KM12 colon,7.47 µM
same,TGI,KM12 colon,> 100 µM
same,GI50,UACC-62 melanoma,2.16 µM
same,TGI,UACC-62 melanoma,> 100 µM
same,GI50,SF-268 CNS,> 100 µM
same,TGI,SF-268 CNS,> 100 µM
same,GI50,EKVX NSCLC,0.612 µM
same,TGI,EKVX NSCLC,> 100 µM
same,GI50,MOLT-4 leukemia,2.15 µM
same,GI50,OVCAR-8 ovarian,3.02 µM
same,TGI,OVCAR-8 ovarian,> 100 µM
same,GI50,HL-60(TB) leukemia,1.66 µM
same,TGI,HL-60(TB) leukemia,3.28 µM
same,GI50,DU-145 prostate,1.52 µM
same,TGI,DU-145 prostate,> 100 µM
same,GI50,NCI-H226 lung,5.87 µM
same,TGI,NCI-H226 lung,> 100 µM
same,GI50,OVCAR-4 ovarian,2.39 µM
same,TGI,OVCAR-4 ovarian,> 100 µM
same,GI50,SK-MEL-5 melanoma,3.32 µM
same,TGI,SK-MEL-5 melanoma,> 100 µM
same,GI50,RXF 393 renal,3.22 µM
same,TGI,RXF 393 renal,> 100 µM
same,GI50,RPMI-8226 leukemia,2.58 µM
same,TGI,RPMI-8226 leukemia,> 20.6 µM
same,GI50,SN12C renal,1.1 µM
same,TGI,SN12C renal,> 100 µM
same,GI50,NCI/ADR-RES ovarian,3.03 µM
same,TGI,NCI/ADR-RES ovarian,> 100 µM
same,GI50,T-47D breast,0.798 µM
same,TGI,T-47D breast,> 20.7 µM
same,GI50,HS 578T breast,1.84 µM
same,TGI,HS 578T breast,> 100 µM
same,GI50,SW-620 colon,6.27 µM
same,TGI,SW-620 colon,> 100 µM
same,GI50,MDA-MB-231 breast,7.15 µM
same,TGI,MDA-MB-231 breast,> 100 µM
same,GI50,LOX IMVI melanoma,3.67 µM
same,TGI,LOX IMVI melanoma,> 100 µM
same,GI50,M14 melanoma,3.82 µM
same,TGI,M14 melanoma,> 100 µM
same,GI50,NCI-H460 NSCLC,3.37 µM
same,TGI,NCI-H460 NSCLC,> 100 µM
same,GI50,UO-31 renal,1.45 µM
same,TGI,UO-31 renal,> 100 µM
same,GI50,K-562 leukemia,3.88 µM
same,TGI,K-562 leukemia,> 100 µM
same,GI50,CCRF-CEM leukemia,4 µM
same,TGI,CCRF-CEM leukemia,> 100 µM
same,GI50,HOP-62 NSCLC,4.74 µM
same,TGI,HOP-62 NSCLC,> 100 µM
same,GI50,SR leukemia,1.72 µM
same,TGI,SR leukemia,5.17 µM
same,GI50,A498 renal,0.383 µM
same,TGI,A498 renal,> 100 µM
same,GI50,A549 NSCLC,2.64 µM
same,TGI,A549 NSCLC,> 100 µM
